The source made the active and inactive calls.
Tests used:
[1] = target: Glyceraldehyde-3-phosphate dehydrogenase (Homo sapiens, UniProt P04406)
[2] = target: T1, Alkaline phosphatase, tissue-nonspecific isozyme (Homo sapiens, UniProt P05186); experiment: potency against alkaline phosphatase TNAP – biochemical, luminescent, dose response, SAR follow-up (AID 1056)
T1 sequence (P05186 whole entry): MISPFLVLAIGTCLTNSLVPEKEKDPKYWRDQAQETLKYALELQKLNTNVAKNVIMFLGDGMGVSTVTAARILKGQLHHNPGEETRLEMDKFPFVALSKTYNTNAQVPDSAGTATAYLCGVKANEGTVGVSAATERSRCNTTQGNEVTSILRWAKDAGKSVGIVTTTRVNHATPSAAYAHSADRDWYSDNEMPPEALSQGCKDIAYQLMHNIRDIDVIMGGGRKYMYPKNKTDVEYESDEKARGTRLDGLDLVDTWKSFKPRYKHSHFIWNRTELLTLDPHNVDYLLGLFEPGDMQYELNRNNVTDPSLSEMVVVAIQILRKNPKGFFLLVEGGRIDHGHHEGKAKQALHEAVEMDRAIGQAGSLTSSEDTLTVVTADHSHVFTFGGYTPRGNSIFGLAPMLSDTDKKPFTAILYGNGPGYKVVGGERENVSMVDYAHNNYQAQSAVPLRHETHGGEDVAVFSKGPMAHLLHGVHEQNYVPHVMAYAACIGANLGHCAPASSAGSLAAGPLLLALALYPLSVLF

[3] = target: Troponin, cardiac muscle (Homo sapiens, UniProt P19429+P45379+P63316); experiment: Fluorescence-based biochemical high throughput dose response assay for activators of the calcium sensitivity of cardiac Regulated Thin Filaments (RTF). [Related pubchem assays (depositor defined):AID493008, AID493018, AID504382, AID504383]; assay type: protein-complex assay
[4] = target: Cytochrome P450 3A4 (Homo sapiens, UniProt P08684);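 note: CYP3A4 tested as one member of a cytochrome P450 panel screen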
Sequence of Cytochrome P450 3A4 (P08684 whole entry): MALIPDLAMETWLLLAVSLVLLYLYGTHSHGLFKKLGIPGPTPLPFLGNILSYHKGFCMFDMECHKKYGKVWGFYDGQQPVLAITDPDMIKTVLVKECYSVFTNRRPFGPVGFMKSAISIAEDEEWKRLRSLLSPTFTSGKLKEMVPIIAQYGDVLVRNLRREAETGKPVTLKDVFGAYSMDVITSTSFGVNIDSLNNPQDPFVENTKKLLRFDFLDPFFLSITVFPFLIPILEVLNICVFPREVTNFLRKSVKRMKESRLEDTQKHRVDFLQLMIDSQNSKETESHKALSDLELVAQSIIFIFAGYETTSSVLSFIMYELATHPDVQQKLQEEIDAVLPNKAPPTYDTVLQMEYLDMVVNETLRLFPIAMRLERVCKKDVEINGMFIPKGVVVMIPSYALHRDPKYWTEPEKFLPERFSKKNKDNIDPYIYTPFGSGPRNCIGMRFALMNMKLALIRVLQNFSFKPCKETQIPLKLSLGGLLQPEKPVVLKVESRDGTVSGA

[5] = target: Beta-lactamase (Salmonella choleraesuis (strain SC-B67), UniProt Q5J463); experiment: Epi-absorbance-based counterscreen for selective VIM-2 inhibitors: dose response biochemical high throughput screening assay to identify inhibitors of TEM-1 serine-beta-lactamase.
Sequence of Beta-lactamase (Salmonella choleraesuis (strain SC-B67), UniProt Q5J463) (Q5J463 whole entry): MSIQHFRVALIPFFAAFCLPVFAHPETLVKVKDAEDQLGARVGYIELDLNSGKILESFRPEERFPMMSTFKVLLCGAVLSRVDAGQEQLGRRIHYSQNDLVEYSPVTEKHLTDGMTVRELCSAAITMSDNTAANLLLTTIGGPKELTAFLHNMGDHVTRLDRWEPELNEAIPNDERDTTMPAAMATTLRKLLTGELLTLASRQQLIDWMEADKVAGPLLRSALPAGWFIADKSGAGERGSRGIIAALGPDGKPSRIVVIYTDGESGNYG

[6] = target: T2, Beta-lactamase (Pseudomonas aeruginosa, UniProt Q79MP6); experiment: inhibition of IMP-1 beta-lactamase activity – biochemical, epi-absorbance, selectivity assay for VIM-2 inhibitor project, dose response (AID 1920)
T2 sequence (Q79MP6 whole entry): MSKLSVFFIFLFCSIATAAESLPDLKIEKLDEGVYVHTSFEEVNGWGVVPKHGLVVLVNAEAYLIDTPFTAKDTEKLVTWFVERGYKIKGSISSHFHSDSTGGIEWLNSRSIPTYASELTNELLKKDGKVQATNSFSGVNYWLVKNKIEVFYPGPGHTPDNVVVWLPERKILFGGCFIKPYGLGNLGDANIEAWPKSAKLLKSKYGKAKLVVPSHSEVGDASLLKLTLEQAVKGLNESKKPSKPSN

[7] = target: T2, Beta-lactamase; experiment: […] counterscreen for selective VIM-2 inhibitors: dose response biochemical high throughput screening assay to identify inhibitors of IMP-1 metallo-beta-lactamase.
[8] = target: DNA dC->dU-editing enzyme APOBEC-3A (Homo sapiens, UniProt P31941); experiment: A3A deaminase inhibition for selectivity – biochemical, dose response (AID 504722); assay type: functional
Sequence of DNA dC->dU-editing enzyme APOBEC-3A (P31941 whole entry): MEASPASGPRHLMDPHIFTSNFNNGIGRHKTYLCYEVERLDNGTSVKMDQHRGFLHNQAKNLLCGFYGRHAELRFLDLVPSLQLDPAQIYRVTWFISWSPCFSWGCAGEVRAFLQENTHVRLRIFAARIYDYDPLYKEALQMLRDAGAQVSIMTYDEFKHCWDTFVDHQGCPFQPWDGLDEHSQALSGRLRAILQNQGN

[9] = target: DNA dC->dU-editing enzyme APOBEC-3G (Homo sapiens, UniProt Q9HC16); experiment: Dose Response confirmation of small molecule APOBEC3G DNA Deaminase Inhibitors via a fluorescence-based single-stranded DNA deaminase assay. [Related pubchem assays (depositor defined):AID493012, AID493028]; assay type: functional
Sequence of DNA dC->dU-editing enzyme APOBEC-3G (Q9HC16 whole entry): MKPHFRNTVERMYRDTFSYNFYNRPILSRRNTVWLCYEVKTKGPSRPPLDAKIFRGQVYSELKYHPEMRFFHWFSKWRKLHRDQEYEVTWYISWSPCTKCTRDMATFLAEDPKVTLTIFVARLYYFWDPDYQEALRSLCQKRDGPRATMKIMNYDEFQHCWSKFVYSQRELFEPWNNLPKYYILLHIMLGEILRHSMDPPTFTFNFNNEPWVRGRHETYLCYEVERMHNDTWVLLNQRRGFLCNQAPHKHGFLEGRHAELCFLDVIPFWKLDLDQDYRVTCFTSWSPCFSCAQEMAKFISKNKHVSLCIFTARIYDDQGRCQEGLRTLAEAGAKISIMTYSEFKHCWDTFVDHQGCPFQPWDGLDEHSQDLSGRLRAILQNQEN

[10] = target: FAD-linked sulfhydryl oxidase ALR (Homo sapiens, UniProt P55789); experiment: ALR-catalysed DTT oxidation blockers – biochemical, H2O2 detection, luminescence, cherry-pick, dose response (AID 493248)
Sequence of FAD-linked sulfhydryl oxidase ALR (P55789 whole entry): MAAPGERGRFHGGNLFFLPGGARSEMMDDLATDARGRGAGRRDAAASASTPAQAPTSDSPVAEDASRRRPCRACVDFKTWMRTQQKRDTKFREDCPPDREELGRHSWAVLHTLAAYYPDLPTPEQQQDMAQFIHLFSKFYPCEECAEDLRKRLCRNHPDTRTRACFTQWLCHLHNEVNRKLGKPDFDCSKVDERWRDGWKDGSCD

[11] = test system: BJ; experiment: BJ-TERT fibroblast viability loss – cell-based, RAS-independent, luminescence, dose response (AID 1933); assay type: functional; conditions: Homo sapiens
[12] = target: T3, Heat shock factor protein 1 (Mus musculus, UniProt P38532); experiment: decrease of HSF1-responsive luciferase luminescence – cell-based, NIH3T3, dose retest, confirmation (AID 2382); assay type: functional;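 note: NIH3T3 fibroblasts with HSF1-driven luciferase reporter stressed by proteasome inhibitor MG132; luminescence from HSF1-driven luciferase expression after 8 hours of MG132 stress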
T3 sequence (P38532 whole entry): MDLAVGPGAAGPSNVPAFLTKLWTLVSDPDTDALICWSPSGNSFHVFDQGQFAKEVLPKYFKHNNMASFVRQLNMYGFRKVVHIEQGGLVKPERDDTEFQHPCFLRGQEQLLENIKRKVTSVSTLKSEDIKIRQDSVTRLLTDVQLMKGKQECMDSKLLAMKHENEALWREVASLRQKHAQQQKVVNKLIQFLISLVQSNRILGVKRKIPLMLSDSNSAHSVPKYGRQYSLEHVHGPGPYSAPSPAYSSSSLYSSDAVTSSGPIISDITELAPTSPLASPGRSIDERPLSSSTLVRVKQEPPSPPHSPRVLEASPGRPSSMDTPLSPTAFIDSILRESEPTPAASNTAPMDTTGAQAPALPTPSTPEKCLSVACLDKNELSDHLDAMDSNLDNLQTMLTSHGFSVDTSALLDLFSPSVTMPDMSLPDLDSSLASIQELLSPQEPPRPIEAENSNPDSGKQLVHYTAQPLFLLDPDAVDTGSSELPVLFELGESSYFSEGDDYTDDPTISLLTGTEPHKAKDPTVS

[13] = test system: BJ; experiment: cells; assay type: functional, cell-based; conditions: Homo sapiens
[14] = test system: BJ; experiment: BJ-TERT-LT-ST fibroblast viability loss – cell-based, RAS-independent, luminescence, dose response (AID 1935); assay type: functional; conditions: Homo sapiens;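 note: BJ fibroblasts immortalized with TERT plus LT and ST oncogenes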
[15] = DRD fibroblast viability loss – cell-based, non-viral oncogenic, luminescence, dose response (AID 1934); assay type: functional; conditions: Homo sapiens
[16] = target: T4, Microphthalmia-associated transcription factor (Homo sapiens, UniProt O75030); experiment: reducers of TRPM1 reporter luminescence, concentration series – cell-based, SK-MEL-5, cherry-picked, set 3, MITF inhibitor project, dose response (AID 493073); assay type: functional;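 note: SK-MEL-5 melanoma cells with luciferase driven by the MITF target TRPM1 promoter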
T4 sequence (O75030 whole entry): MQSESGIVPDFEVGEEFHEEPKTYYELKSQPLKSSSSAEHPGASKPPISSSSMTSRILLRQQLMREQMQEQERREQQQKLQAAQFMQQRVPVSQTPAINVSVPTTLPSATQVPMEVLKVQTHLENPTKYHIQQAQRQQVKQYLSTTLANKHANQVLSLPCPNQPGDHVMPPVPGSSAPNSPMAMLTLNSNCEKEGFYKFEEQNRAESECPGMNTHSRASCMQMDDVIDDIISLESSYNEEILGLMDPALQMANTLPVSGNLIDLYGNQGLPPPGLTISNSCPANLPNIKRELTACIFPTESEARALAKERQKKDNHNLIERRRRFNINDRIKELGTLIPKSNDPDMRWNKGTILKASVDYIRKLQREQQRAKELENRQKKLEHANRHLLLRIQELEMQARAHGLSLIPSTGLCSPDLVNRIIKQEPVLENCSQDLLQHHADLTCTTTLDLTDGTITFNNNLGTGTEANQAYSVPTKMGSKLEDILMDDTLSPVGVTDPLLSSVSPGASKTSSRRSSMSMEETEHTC

[17] = test system: A-375; experiment: proliferation inhibition in MITF-low A375 cells – cell-based, cherry-pick samples, set 2, counter-screen for MITF modulator project, dose response (AID 540335); assay type: functional; conditions: Homo sapiens
[18] = target: T5, G-protein coupled receptor 55 (Homo sapiens, UniProt Q9Y2T6); experiment: inhibition of LPI-stimulated GPR55 beta-arrestin translocation – imaging, U2OS, beta-arrestin-GFP, LPI agonist, primary screen (AID 2013); assay type: functional;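 note: antagonist potency measured as reduced agonist-driven arrestin aggregation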
T5 sequence (Q9Y2T6 whole entry): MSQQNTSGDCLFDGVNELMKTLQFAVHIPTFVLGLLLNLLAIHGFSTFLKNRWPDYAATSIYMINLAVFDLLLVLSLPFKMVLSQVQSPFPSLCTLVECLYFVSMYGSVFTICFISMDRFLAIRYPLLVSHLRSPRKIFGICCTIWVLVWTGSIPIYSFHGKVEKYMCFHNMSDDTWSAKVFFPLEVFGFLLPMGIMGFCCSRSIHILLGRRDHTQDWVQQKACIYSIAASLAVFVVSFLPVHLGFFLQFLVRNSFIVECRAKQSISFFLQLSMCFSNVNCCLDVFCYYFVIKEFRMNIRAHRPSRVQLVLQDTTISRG

[19] = Luminescence Cell-Based Dose Retest to Confirm Inhibitors of Cancer Stem Cells. [Related pubchem assays (depositor defined):AID2717, AID2721]; assay type: functional; conditions: Homo sapiens
[20] = target: T6, Cannabinoid receptor 2 (Homo sapiens, UniProt P34972); experiment: SAR analysis of antagonists of the Cannabinoid Receptor 2 using an Image-Based Assay - Set 2. [Related pubchem assays (depositor defined):AID1961, AID1965]; assay type: functional
T6 sequence (P34972 whole entry): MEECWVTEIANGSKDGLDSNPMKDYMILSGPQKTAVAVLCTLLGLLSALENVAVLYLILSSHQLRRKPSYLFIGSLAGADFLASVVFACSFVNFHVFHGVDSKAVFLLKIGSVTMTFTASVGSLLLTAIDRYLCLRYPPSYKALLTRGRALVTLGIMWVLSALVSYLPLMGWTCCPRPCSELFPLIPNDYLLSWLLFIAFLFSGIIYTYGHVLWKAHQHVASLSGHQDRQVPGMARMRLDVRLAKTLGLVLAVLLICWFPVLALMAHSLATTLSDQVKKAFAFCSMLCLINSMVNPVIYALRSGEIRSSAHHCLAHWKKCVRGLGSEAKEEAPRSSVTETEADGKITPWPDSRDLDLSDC

[21] = target: T6, Cannabinoid receptor 2; experiment: SAR analysis of agonists of the Cannabinoid Receptor 2 using an Image-Based Assay - Set 2. [Related pubchem assays (depositor defined):AID1961, AID1965]; assay type: functional
[22] = target: T5, G-protein coupled receptor 55; experiment: SAR analysis of selective Agonists of GPR55 using an Image-Based Assay. [Related pubchem assays (depositor defined):AID1961, AID1965]; assay type: functional
[23] = target: Cannabinoid receptor 1 (Homo sapiens, UniProt P21554); experiment: SAR analysis of antagonists of the Cannabinoid Receptor 1 using an Image-Based Assay. [Related pubchem assays (depositor defined):AID1961, AID1965]; assay type: functional
Sequence of Cannabinoid receptor 1 (P21554 whole entry): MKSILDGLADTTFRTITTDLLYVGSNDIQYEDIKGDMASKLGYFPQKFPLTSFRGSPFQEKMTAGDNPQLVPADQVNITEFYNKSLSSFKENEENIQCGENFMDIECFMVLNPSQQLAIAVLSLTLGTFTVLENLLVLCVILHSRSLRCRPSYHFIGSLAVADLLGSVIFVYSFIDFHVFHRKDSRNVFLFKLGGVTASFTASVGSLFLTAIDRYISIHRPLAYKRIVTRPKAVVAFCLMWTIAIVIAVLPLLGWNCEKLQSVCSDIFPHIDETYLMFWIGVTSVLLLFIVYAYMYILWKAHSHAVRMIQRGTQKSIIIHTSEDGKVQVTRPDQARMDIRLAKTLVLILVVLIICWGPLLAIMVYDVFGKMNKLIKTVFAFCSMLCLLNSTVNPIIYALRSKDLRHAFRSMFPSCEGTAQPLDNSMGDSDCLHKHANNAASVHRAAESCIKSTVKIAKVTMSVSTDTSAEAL

[24] = target: T5, G-protein coupled receptor 55; experiment: selective activators of receptor GPR55 – imaging, U2OS cells, beta-arrestin-GFP redistribution, primary screen (AID 1961); assay type: functional
[25] = viability of uninfected HEp-2 cells – cell-based, HTS, cytotoxicity control for RSV inhibitor project, dose response (AID 2410); assay type: functional; conditions: human respiratory syncytial virus
[26] = test system: Streptococcus sp. 'group A'; experiment: Streptococcus pyogenes SK(-)GAS viability under kanamycin – luminescence, BacTiterGlo, confirmation, counter-screen for streptokinase expression inhibitor project, dose response (AID 1900); assay type: functional, organism-based
[27] = test system: Streptococcus; experiment: GAS UMAA2166 growth inhibition – luminescence, BacTiterGlo, counter-screen for streptokinase expression inhibitor project, dose response (AID 1915); assay type: functional, organism-based;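 note: potency for reduction of bacterial viability or growth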
[28] = test system: CHO-K1; experiment: (§1) Counterscreen for antagonists of the orexin 1 receptor (OX1R; HCRTR1): Homogeneous time resolved fluorescence (HTRF)-based cell-based dose response assay to identify antagonists of the parental CHO-K1 cell line. [Related pubchem assays (depositor defined):AID434989, AID435008, AID463079, AID485270, AID492963, AID492964, AID492965, AID493232, AID504699, AID504701]; assay type: functional; conditions: Cricetulus griseus
[29] = as §1, with “Fluorescence-based” for “Homogeneous time resolved fluorescence (HTRF)-based”, “cell-based high throughput” for “cell-based”, “CHO” for “CHO-K1”; assay type: functional
[30] = target: T7, Orexin/Hypocretin receptor type 1 (Homo sapiens, UniProt O43613); experiment: Homogeneous Time Resolved Fluorescence (HTRF)-based cell-based high throughput dose response assay for antagonists of the orexin 1 receptor (OX1R; HCRTR1). [Related pubchem assays (depositor defined):AID434989, AID435008, AID463079, AID485270, AID492963, AID492964, AID492965, AID493232, AID504717, AID504718]; assay type: functional
T7 sequence (O43613 whole entry): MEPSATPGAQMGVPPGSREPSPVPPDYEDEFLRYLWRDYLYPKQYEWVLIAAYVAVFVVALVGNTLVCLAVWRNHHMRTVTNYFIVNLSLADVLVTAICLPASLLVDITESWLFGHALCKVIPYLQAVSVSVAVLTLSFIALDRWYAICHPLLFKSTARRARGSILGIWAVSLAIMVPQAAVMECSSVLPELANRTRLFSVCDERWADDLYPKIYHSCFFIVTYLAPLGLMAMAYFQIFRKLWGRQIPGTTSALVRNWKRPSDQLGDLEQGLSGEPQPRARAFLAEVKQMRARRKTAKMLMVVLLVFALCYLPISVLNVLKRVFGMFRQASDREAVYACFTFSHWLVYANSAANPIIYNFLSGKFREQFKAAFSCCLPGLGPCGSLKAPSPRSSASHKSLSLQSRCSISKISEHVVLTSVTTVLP

[31] = target: T7, Orexin/Hypocretin receptor type 1; experiment: Fluorescence-based cell-based high throughput dose response assay for antagonists of the orexin 1 receptor (OX1R; HCRTR1). [Related pubchem assays (depositor defined):AID434989, AID435008, AID463079, AID485270, AID492963, AID492964, AID492965, AID493232, AID504717, AID504718]; assay type: functional
[32] = cells

Sequence of Glyceraldehyde-3-phosphate dehydrogenase (P04406 whole entry): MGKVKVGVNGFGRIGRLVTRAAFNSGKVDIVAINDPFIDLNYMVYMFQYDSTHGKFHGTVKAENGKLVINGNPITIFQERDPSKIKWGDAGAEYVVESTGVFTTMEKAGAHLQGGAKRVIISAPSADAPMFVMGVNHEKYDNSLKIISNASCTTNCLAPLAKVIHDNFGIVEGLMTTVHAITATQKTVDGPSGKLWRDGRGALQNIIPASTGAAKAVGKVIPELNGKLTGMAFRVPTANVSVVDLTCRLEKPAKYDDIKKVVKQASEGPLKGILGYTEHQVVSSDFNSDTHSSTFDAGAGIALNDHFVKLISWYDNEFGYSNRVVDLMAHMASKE

Cc1cc(C)c(S(=O)(=O)Nc2ccc3ccccc3c2)c(C)c1
IC50 [1]: > 100 µM (not active) | IC50 [2]: > 100 µM (inactive)

Cc1nnc(N/N=C/c2ccc(O)c([N+](=O)[O-])c2)nc1O
EC50 [3]: > 71.5 µM (inactive)

Cc1ccc(C(=O)c2c[nH]c(C(=O)NCCCN3CCOCC3)c2)cc1
AC50 [4]: inconclusive

S=c1[nH]nc(-c2ccco2)n1Cc1ccccc1
IC50 [5]: > 59.6 µM (inactive) | IC50 [6]: > 59.6 µM (inactive) | IC50 [7]: > 59.6 µM (inactive) | IC50 [8]: > 100 µM (inactive) | IC50 [9]: 2.89 µM (active) | AC50 [10]: 7.95 µM (active)

CCOc1cc(C)c(C(C)C)cc1S(=O)(=O)Nc1cccnc1
IC50 [2]: 18.9 µM (active)

CCCCN1C=CC(=C2C(=O)c3ccccc3C2=O)C=C1
EC50 [11]: 6.03 µM (active) | EC50 [12]: 0.356 µM (active) | EC50 [13]: 7.56 µM (active) | EC50 [14]: > 150 µM (inconclusive) | EC50 [15]: 7.63 µM (active) | AC50 [16]: 0.921 µM (active) | AC50 [17]: 20.6 µM (active)

COC(=O)N1CCC2(CCN(Cc3nccs3)CC2)CC1
AC50 [4]: inconclusive

O=c1c2ccccc2nc2n1C1(CCCCC1)Cc1ccccc1-2
IC50 [18]: 2.41 µM (active) | AC50 [19]: 2.06 µM (active)

COc1ccc2c(c1)cc(C)c1nnc(SCC(=O)N(C)c3nc(-c4ccccc4)cs3)n12
IC50 [20]: > 32 µM (inactive) | EC50 [21]: > 32 µM (inactive) | EC50 [22]: > 32 µM (inactive) | IC50 [23]: > 32 µM (inactive)

Cc1nn(C(C)(C)C)c(OC(=O)c2cccs2)c1Sc1ccccc1
IC50 [18]: 5.36 µM (active)

COc1ccc2cc(C)c3nnc(SCC(=O)Nc4nc(-c5ccc(F)cc5)cs4)n3c2c1
EC50 [24]: < 0.5 µM (active) | IC50 [20]: > 32 µM (inactive) | EC50 [21]: > 32 µM (inactive) | EC50 [22]: 0.164 µM (active) | IC50 [23]: > 32 µM (inactive)

O=C(O)c1ccc(N2C(=O)CC(SC(=NCc3ccc4c(c3)OCO4)Nc3ccc(F)cc3)C2=O)cc1 (centres undefined)
CC50 [25]: 32.4 µM (active) | EC50 [26]: 4.89 µM (active) | EC50 [27]: 29 µM (active) | IC50 [28]: > 66.2 µM (inactive) | IC50 [29]: 23.2 µM (inactive) | IC50 [30]: 24.5 µM (inactive) | IC50 [31]: 14.3 µM (inactive) | IC50 [32]: 23.9 µM (active)

— ChEMBL document CHEMBL1201862, “PubChem BioAssay data set” (2004)
